Test results taken from publication PMC5218480 (PLoS ONE, 2017).

System: MV-4-11 cells
Assay: Gene expression microarray analysis (Affymetrix PrimeView) and GSEA
Format: cell-based, human
Design: RFU PODN (11730768_x_at) / Fold change /veh PODN (11730768_x_at) / RFU LINC00158 (11744669_a_at) / Fold change /veh LINC00158 (11744669_a_at) / RFU DUSP10 (11751237_a_at) / Fold change /veh DUSP10 (11751237_a_at) / RFU ID3 (11757404_x_at) / Fold change /veh ID3 (11757404_x_at) / RFU PLEKHG5 (11737974_s_at) / Fold change /veh PLEKHG5 (11737974_s_at) / RFU LRRC4B (11730491_at) / Fold change /veh LRRC4B (11730491_at) / RFU GIMAP4 (11747438_a_at) / Fold change /veh GIMAP4 (11747438_a_at) / RFU KRT8 (11758183_x_at) / Fold change /veh KRT8 (11758183_x_at) / RFU CNN1 (11734310_a_at) / Fold change /veh CNN1 (11734310_a_at) / RFU VPS37D (11726825_at) / Fold change /veh VPS37D (11726825_at) / RFU C10orf10 (11716522_x_at) / Fold change /veh C10orf10 (11716522_x_at) / RFU KIR2DL2 /// KIR2DL4 /// KIR2DL5A /// KIR2DL5B /// KIR2DS1 /// KIR2DS2 /// KIR2DS3 /// KIR2DS4 /// KIR3DL3 /// KIR3DL3 /// KIR3DS1 (11738374_at) / Fold change /veh KIR2DL2 /// KIR2DL4 /// KIR2DL5A /// KIR2DL5B /// KIR2DS1 /// KIR2DS2 /// KIR2DS3 /// KIR2DS4 /// KIR3DL3 /// KIR3DL3 /// KIR3DS1 (11738374_at) / RFU C1QL1 (11718748_at) / Fold change /veh C1QL1 (11718748_at) / RFU TMPRSS4 (11747572_a_at) / Fold change /veh TMPRSS4 (11747572_a_at) / RFU HAMP (11756126_x_at) / Fold change /veh HAMP (11756126_x_at) / RFU RNFT2 (11725882_a_at) / Fold change /veh RNFT2 (11725882_a_at) / RFU NR4A2 (11747474_a_at) / Fold change /veh NR4A2 (11747474_a_at) / RFU ABCC12 (11746883_a_at) / Fold change /veh ABCC12 (11746883_a_at) / RFU TMEM136 (11760407_x_at) / Fold change /veh TMEM136 (11760407_x_at) / RFU CLDN22 /// WWC2 (11732394_at) / Fold change /veh CLDN22 /// WWC2 (11732394_at) / RFU HLA-DPB1 (11760878_x_at) / Fold change /veh HLA-DPB1 (11760878_x_at) / RFU SPINT1 (11716480_a_at) / Fold change /veh SPINT1 (11716480_a_at) / RFU GAP43 (11754022_s_at) / Fold change /veh GAP43 (11754022_s_at) / RFU A4GNT (11735810_at) / Fold change /veh A4GNT (11735810_at) / RFU PRB3 (11715151_x_at) / Fold change /veh PRB3 (11715151_x_at) / RFU TUBB4B (11761932_at) / Fold change /veh TUBB4B (11761932_at) / RFU CAPN14 (11732068_a_at) / Fold change /veh CAPN14 (11732068_a_at) / RFU TMCC2 (11721928_a_at) / Fold change /veh TMCC2 (11721928_a_at) / RFU IRGQ (11745062_a_at) / Fold change /veh IRGQ (11745062_a_at) / RFU FAM174B (11720279_a_at) / Fold change /veh FAM174B (11720279_a_at) / RFU TMPRSS4 (11748680_a_at) / Fold change /veh TMPRSS4 (11748680_a_at) / RFU FAM212B (11763350_a_at) / Fold change /veh FAM212B (11763350_a_at) / RFU PLEKHG5 (11743358_a_at) / Fold change /veh PLEKHG5 (11743358_a_at) / RFU ZSCAN30 (11745921_a_at) / Fold change /veh ZSCAN30 (11745921_a_at) / RFU CMKLR1 (11741424_a_at) / Fold change /veh CMKLR1 (11741424_a_at) / RFU LOC101060620 /// MAPK8IP1 (11723275_at) / Fold change /veh LOC101060620 /// MAPK8IP1 (11723275_at) / RFU SPTSSB (11747773_x_at) / Fold change /veh SPTSSB (11747773_x_at) / RFU PRSS12 (11739890_at) / Fold change /veh PRSS12 (11739890_at) / RFU BIN1 (11741810_x_at) / Fold change /veh BIN1 (11741810_x_at) / RFU WNT11 (11732464_a_at) / Fold change /veh WNT11 (11732464_a_at) / RFU C10orf10 (11716521_a_at) / Fold change /veh C10orf10 (11716521_a_at) / RFU C5orf56 (11738089_at) / Fold change /veh C5orf56 (11738089_at) / RFU CYB561 (11721691_x_at) / Fold change /veh CYB561 (11721691_x_at) / RFU ANKRD19P (11752326_a_at) / Fold change /veh ANKRD19P (11752326_a_at) / RFU OR2T12 /// OR2T33 /// OR2T8 (11738714_s_at) / Fold change /veh OR2T12 /// OR2T33 /// OR2T8 (11738714_s_at) / RFU VCAN (11748164_a_at) / Fold change /veh VCAN (11748164_a_at) / RFU JSRP1 (11732532_at) / Fold change /veh JSRP1 (11732532_at) / RFU KRTAP10-11 (11738290_x_at) / Fold change /veh KRTAP10-11 (11738290_x_at) / RFU MYO3A (11730013_a_at) / Fold change /veh MYO3A (11730013_a_at) / RFU EBF3 (11725865_a_at) / Fold change /veh EBF3 (11725865_a_at) / RFU CAMK2N1 (11719241_x_at) / Fold change /veh CAMK2N1 (11719241_x_at) / RFU C5orf56 (11738088_a_at) / Fold change /veh C5orf56 (11738088_a_at) / RFU OLFML3 (11715873_a_at) / Fold change /veh OLFML3 (11715873_a_at) / RFU LOC100653217 /// NTM (11731650_a_at) / Fold change /veh LOC100653217 /// NTM (11731650_a_at) / RFU MAPK11 (11762145_a_at) / Fold change /veh MAPK11 (11762145_a_at) / RFU FIZ1 (11724087_x_at) / Fold change /veh FIZ1 (11724087_x_at) / RFU OASL (11726364_x_at) / Fold change /veh OASL (11726364_x_at) / RFU SOX15 (11748057_x_at) / Fold change /veh SOX15 (11748057_x_at) / RFU CD79A (11719716_a_at) / Fold change /veh CD79A (11719716_a_at) / RFU HIST1H1D (11736915_at) / Fold change /veh HIST1H1D (11736915_at) / RFU CASKIN2 (11723855_a_at) / Fold change /veh CASKIN2 (11723855_a_at) / RFU LOC730098 (11760151_x_at) / Fold change /veh LOC730098 (11760151_x_at) / RFU OR4N2 (11742367_at) / Fold change /veh OR4N2 (11742367_at) / RFU PRRT2 (11749266_a_at) / Fold change /veh PRRT2 (11749266_a_at) / RFU SNX32 (11753110_a_at) / Fold change /veh SNX32 (11753110_a_at) / RFU CDHR5 (11726645_a_at) / Fold change /veh CDHR5 (11726645_a_at) / RFU RCAN1 (11760418_a_at) / Fold change /veh RCAN1 (11760418_a_at) / RFU FAM167A (11723789_a_at) / Fold change /veh FAM167A (11723789_a_at) / RFU FAM26E (11764081_at) / Fold change /veh FAM26E (11764081_at) / RFU ISYNA1 (11749810_s_at) / Fold change /veh ISYNA1 (11749810_s_at) / RFU ACY1 (11761880_at) / Fold change /veh ACY1 (11761880_at) / RFU 11764098_at / Fold change /veh 11764098_at / RFU SAMD14 (11745864_x_at) / Fold change /veh SAMD14 (11745864_x_at) / RFU NPB (11741838_a_at) / Fold change /veh NPB (11741838_a_at) / RFU TMPRSS6 (11731388_a_at) / Fold change /veh TMPRSS6 (11731388_a_at) / RFU KRTAP10-2 (11738614_at) / Fold change /veh KRTAP10-2 (11738614_at) / RFU ARHGAP8 /// PRR5-ARHGAP8 (11727945_x_at) / Fold change /veh ARHGAP8 /// PRR5-ARHGAP8 (11727945_x_at) / RFU KRTAP5-7 /// NADSYN1 (11734609_at) / Fold change /veh KRTAP5-7 /// NADSYN1 (11734609_at) / RFU RASL12 (11751679_a_at) / Fold change /veh RASL12 (11751679_a_at) / RFU CDKN2B (11736163_a_at) / Fold change /veh CDKN2B (11736163_a_at) / RFU PRF1 (11729649_at) / Fold change /veh PRF1 (11729649_at) / RFU, ZNF638 /// ZNF638-IT1 / Fold change vs veh, ZNF638 /// ZNF638-IT1 / RFU, PANK3 / Fold change vs veh, PANK3 / RFU, SH3YL1 / Fold change vs veh, SH3YL1 / RFU, ZEB2 / Fold change vs veh, ZEB2 / RFU, NRIP1 / Fold change vs veh, NRIP1 / RFU, PTTG1IP / Fold change vs veh, PTTG1IP / RFU, CAPN2 / Fold change vs veh, CAPN2 / RFU, MED14 / Fold change vs veh, MED14 / RFU, SNORA58 / Fold change vs veh, SNORA58 / RFU, C1orf63 / Fold change vs veh, C1orf63 / RFU, LRRFIP1 / Fold change vs veh, LRRFIP1 / RFU, NDUFAF7 / Fold change vs veh, NDUFAF7 / RFU, SLC12A2 / Fold change vs veh, SLC12A2 / RFU, IBTK / Fold change vs veh, IBTK / RFU, ESF1 / Fold change vs veh, ESF1 / Fold change vs veh, TMEM50B / RFU, TAOK1 / Fold change vs veh, TAOK1 / RFU, ACBD3 / Fold change vs veh, ACBD3 / RFU, TMA16 / Fold change vs veh, TMA16 / RFU, RWDD3 / Fold change vs veh, RWDD3 / RFU, BCAT1 / Fold change vs veh, BCAT1 / RFU, EDEM3 / Fold change vs veh, EDEM3 / RFU, TMEM33 / Fold change vs veh, TMEM33 / RFU, WDR75 / Fold change vs veh, WDR75 / RFU, AHCTF1 / Fold change vs veh, AHCTF1 / RFU, TFRC / Fold change vs veh, TFRC / RFU, ZDHHC17 / Fold change vs veh, ZDHHC17 / RFU, NOM1 / Fold change vs veh, NOM1 / RFU, ARL8B / Fold change vs veh, ARL8B / RFU, ZBTB11 / Fold change vs veh, ZBTB11 / RFU, TAMM41 / Fold change vs veh, TAMM41 / RFU, KIAA1704 /// LOC100996395 / Fold change vs veh, KIAA1704 /// LOC100996395 / RFU, ING1 / Fold change vs veh, ING1 / RFU, TRMT61B / Fold change vs veh, TRMT61B / RFU, FUBP3 / Fold change vs veh, FUBP3 / RFU, TP53 / Fold change vs veh, TP53 / RFU, TNKS2 / Fold change vs veh, TNKS2 / RFU, ZFP14 / Fold change vs veh, ZFP14 / RFU, ACTR2 / Fold change vs veh, ACTR2 / RFU, PPP3R1 / Fold change vs veh, PPP3R1 / RFU, PIK3R1 / Fold change vs veh, PIK3R1 / RFU, HNRNPA1 / Fold change vs veh, HNRNPA1 / RFU, RNF170 / Fold change vs veh, RNF170 / RFU, ZNF28 / Fold change vs veh, ZNF28 / RFU, RNGTT / Fold change vs veh, RNGTT / RFU, OGT / Fold change vs veh, OGT / RFU, BRD1 / Fold change vs veh, BRD1 / RFU, MARS / Fold change vs veh, MARS / RFU, ZNF655 / Fold change vs veh, ZNF655 / RFU, FAHD1 / Fold change vs veh, FAHD1 / RFU, BDP1 / Fold change vs veh, BDP1 / RFU, LRRCC1 / Fold change vs veh, LRRCC1 / RFU, ARID1A / Fold change vs veh, ARID1A / RFU, ZNF146 / Fold change vs veh, ZNF146 / RFU, ZNF330 / Fold change vs veh, ZNF330 / RFU, GPN3 / Fold change vs veh, GPN3 / RFU, C9orf123 / Fold change vs veh, C9orf123 / RFU, N4BP2L2 / Fold change vs veh, N4BP2L2 / RFU, ARFIP1 / Fold change vs veh, ARFIP1 / RFU, FAM179B / Fold change vs veh, FAM179B / RFU, BCL10 / Fold change vs veh, BCL10 / RFU, UHRF1BP1L / Fold change vs veh, UHRF1BP1L / RFU, BET1 / Fold change vs veh, BET1 / RFU, CNOT2 / Fold change vs veh, CNOT2 / RFU, ZNF268 / Fold change vs veh, ZNF268 / Fold change vs veh, ZNF507 / RFU, DGCR2 / Fold change vs veh, DGCR2 / RFU, WDSUB1 / Fold change vs veh, WDSUB1 / Fold change vs veh, HSP90B1 /// MIR3652 / RFU, ADSS / Fold change vs veh, ADSS / RFU, GK / Fold change vs veh, GK / RFU, ZNF148 / Fold change vs veh, ZNF148 / RFU, TAF9 / Fold change vs veh, TAF9 / RFU, SLC1A5 / Fold change vs veh, SLC1A5 / RFU, SLMO2 / Fold change vs veh, SLMO2 / RFU, ABCC4 / Fold change vs veh, ABCC4 / RFU, LOC101060439 /// RAP1B / Fold change vs veh, LOC101060439 /// RAP1B / RFU, RFX7 / Fold change vs veh, RFX7 / RFU, GTPBP10 / Fold change vs veh, GTPBP10 / RFU, CNEP1R1 / Fold change vs veh, CNEP1R1 / RFU, BIVM-ERCC5 /// ERCC5 / Fold change vs veh, BIVM-ERCC5 /// ERCC5 / RFU, ILF3 / Fold change vs veh, ILF3 / RFU 11762660_at / Fold change /veh 11762660_at / RFU VCAN (11757783_s_at) / Fold change /veh VCAN (11757783_s_at) / RFU DDX43 (11728927_at) / Fold change /veh DDX43 (11728927_at) / RFU KRT8 (11758188_x_at) / Fold change /veh KRT8 (11758188_x_at) / RFU NKD1 (11759106_at) / Fold change /veh NKD1 (11759106_at) / RFU SRD5A1 (11742802_a_at) / Fold change /veh SRD5A1 (11742802_a_at) / RFU TPSAB1 /// TPSB2 (11721975_s_at) / Fold change /veh TPSAB1 /// TPSB2 (11721975_s_at) / RFU GSTM3 (11746129_a_at) / Fold change /veh GSTM3 (11746129_a_at) / RFU IL23R (11737362_x_at) / Fold change /veh IL23R (11737362_x_at) / RFU TMEM51 (11727254_a_at) / Fold change /veh TMEM51 (11727254_a_at) / RFU PIWIL2 (11732686_x_at) / Fold change /veh PIWIL2 (11732686_x_at) / RFU ORM1 (11744905_x_at) / Fold change /veh ORM1 (11744905_x_at) / RFU CCDC152 (11743942_at) / Fold change /veh CCDC152 (11743942_at) / RFU ECM1 (11717891_a_at) / Fold change /veh ECM1 (11717891_a_at) / RFU IL23R (11748794_a_at) / Fold change /veh IL23R (11748794_a_at) / RFU TNFAIP8L3 (11732012_x_at) / Fold change /veh TNFAIP8L3 (11732012_x_at) / RFU MBOAT4 (11741988_at) / Fold change /veh MBOAT4 (11741988_at) / RFU 11764193_at / Fold change /veh 11764193_at / RFU TMEM53 (11763286_at) / Fold change /veh TMEM53 (11763286_at) / RFU MAGEB2 (11727129_at) / Fold change /veh MAGEB2 (11727129_at) / RFU TMEM200A (11744735_a_at) / Fold change /veh TMEM200A (11744735_a_at) / RFU CCDC152 (11751479_a_at) / Fold change /veh CCDC152 (11751479_a_at) / RFU FAM211A (11726209_a_at) / Fold change /veh FAM211A (11726209_a_at) / RFU RGS16 (11746705_a_at) / Fold change /veh RGS16 (11746705_a_at) / RFU VCAN (11755009_s_at) / Fold change /veh VCAN (11755009_s_at) / RFU RHOB (11743442_s_at) / Fold change /veh RHOB (11743442_s_at) / RFU RGS16 (11720943_a_at) / Fold change /veh RGS16 (11720943_a_at) / RFU RGS16 (11720944_at) / Fold change /veh RGS16 (11720944_at) / RFU, VPS4B / Fold change vs veh, VPS4B / RFU, CREB1 / Fold change vs veh, CREB1 / RFU, DNAJC13 / Fold change vs veh, DNAJC13 / RFU, GNAQ / Fold change vs veh, GNAQ / RFU, CDK5R1 / Fold change vs veh, CDK5R1 / RFU, ZRANB3 / Fold change vs veh, ZRANB3 / RFU, CUL4A / Fold change vs veh, CUL4A / RFU, CCNY / Fold change vs veh, CCNY / RFU, UFL1 / Fold change vs veh, UFL1 / RFU, COG3 / Fold change vs veh, COG3 / RFU, DIAPH2 / Fold change vs veh, DIAPH2 / RFU, SKA2 / Fold change vs veh, SKA2 / RFU, AFF3 / Fold change vs veh, AFF3 / RFU, LMF1 / Fold change vs veh, LMF1 / RFU, IPO11 / Fold change vs veh, IPO11 / RFU, DFFB / Fold change vs veh, DFFB / RFU, FOXP1 / Fold change vs veh, FOXP1 / RFU, CARD8 / Fold change vs veh, CARD8 / RFU, STRN3 / Fold change vs veh, STRN3 / RFU, ADK / Fold change vs veh, ADK / RFU, RASSF2 / Fold change vs veh, RASSF2 / RFU, WIPF1 / Fold change vs veh, WIPF1 / RFU, LARP1B / Fold change vs veh, LARP1B / RFU, RASA1 / Fold change vs veh, RASA1 / RFU, RB1 / Fold change vs veh, RB1 / RFU, PPFIA1 / Fold change vs veh, PPFIA1 / RFU, MAT2A / Fold change vs veh, MAT2A / RFU, CCT5 / Fold change vs veh, CCT5 / RFU, WDR92 / Fold change vs veh, WDR92 / RFU, CUX1 / Fold change vs veh, CUX1 / RFU, TTC7A / Fold change vs veh, TTC7A / RFU, TMEM135 / Fold change vs veh, TMEM135 / RFU, DEPTOR / Fold change vs veh, DEPTOR / RFU, CPM / Fold change vs veh, CPM / RFU, DNAJB6 / Fold change vs veh, DNAJB6 / RFU, CACNA2D3 / Fold change vs veh, CACNA2D3 / RFU, DTX4 / Fold change vs veh, DTX4 / RFU, TFCP2 / Fold change vs veh, TFCP2 / RFU, GMCL1 /// GMCL1P1 / Fold change vs veh, GMCL1 /// GMCL1P1 / RFU, AEBP2 / Fold change vs veh, AEBP2 / RFU, SNHG1 /// SNORD22 /// SNORD25 /// SNORD26 /// SNORD27 /// SNORD28 /// SNORD29 /// SNORD31 / Fold change vs veh, SNHG1 /// SNORD22 /// SNORD25 /// SNORD26 /// SNORD27 /// SNORD28 /// SNORD29 /// SNORD31 / Fold change (Aza/veh), C12orf56 (ProbeSet 11735607_a_at) / Fold change (ACY-1035/veh), C12orf56 (ProbeSet 11735607_a_at) / Fold change (Aza/veh), FGFR1OP (ProbeSet 11751329_s_at) / Fold change (ACY-1035/veh), FGFR1OP (ProbeSet 11751329_s_at) / Fold change (Aza/veh), VPS36 (ProbeSet 11739960_a_at) / Fold change (ACY-1035/veh), VPS36 (ProbeSet 11739960_a_at) / RFU SYPL1 (11715823_x_at) / Fold change /veh SYPL1 (11715823_x_at) / RFU IGFBP7 (11715501_s_at) / Fold change /veh IGFBP7 (11715501_s_at) / RFU REEP3 (11722064_at) / Fold change /veh REEP3 (11722064_at) / RFU IGLL1 (11728026_x_at) / Fold change /veh IGLL1 (11728026_x_at): dose or concentration left out as unconfirmed
Details: MV-4-11 cells, 48 hours

SMILES: Nc1ncn([C@@H]2O[C@H](CO)[C@@H](O)[C@H]2O)c(=O)n1 [azacitidine]
- RFU CDKN2B (11736163_a_at): 8.51 RFU
